{"source": "patent US20050101595A1", "about": "“N-containing cycloalkyl-substituted amino-thiazole derivatives and pharmaceutical compositions for inhibiting cell proliferation and methods for their use” (PFIZER INC., priority 2003, published 2005)", "key": {"[1]": {"target": "human CDK4 and genetically truncated (1-264) cyclin D3 (Homo sapiens, UniProt P11802)", "sequence (P11802 whole entry, the tested form may be a part)": "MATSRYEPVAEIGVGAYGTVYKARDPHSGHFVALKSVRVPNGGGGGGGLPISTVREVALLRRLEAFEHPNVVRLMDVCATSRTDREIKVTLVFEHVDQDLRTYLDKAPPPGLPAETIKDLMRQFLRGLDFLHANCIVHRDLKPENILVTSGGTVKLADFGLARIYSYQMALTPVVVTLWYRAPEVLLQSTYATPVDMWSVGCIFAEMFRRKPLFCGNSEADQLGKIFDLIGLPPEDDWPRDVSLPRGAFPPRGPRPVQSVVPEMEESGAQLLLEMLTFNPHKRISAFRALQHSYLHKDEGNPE", "sequence (P30281 1-264 partner)": "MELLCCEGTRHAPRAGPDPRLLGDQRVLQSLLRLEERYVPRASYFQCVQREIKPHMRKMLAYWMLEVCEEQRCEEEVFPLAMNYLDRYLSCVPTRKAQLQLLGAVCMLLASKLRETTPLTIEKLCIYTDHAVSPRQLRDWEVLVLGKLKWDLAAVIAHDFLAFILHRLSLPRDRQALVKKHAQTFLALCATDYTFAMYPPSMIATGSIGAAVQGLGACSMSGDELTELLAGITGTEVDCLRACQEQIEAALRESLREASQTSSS", "assay": "Inhibition of CDK4/Cyclin D Retinoblastoma Kinase Activity", "type": "biochemical", "conditions": "for Ki: apparent Ki, CDK4/truncated cyclin D3, Rb fragment substrate, 25 μM ATP", "in_short": "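The enzyme complex (5 nM), expressed in co-infected insect cells, was incubated with recombinant Rb fragment, 25 μM radiolabelled ATP and 2% DMSO at 30 °C. Reactions were stopped with EDTA after 20 minutes, or 60 minutes for tight-binding inhibitors. Apparent Ki values came from competitive inhibition fits.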"}, "[2]": {"tested_on": "HCT-116 cell line", "assay": "Inhibition of cell growth, tetrazolium salt (MTT) assay", "type": "cell-based", "conditions": "for IC50: Homo sapiens, HCT-116, 120 h, MTT, three to five days, read-out: HCT-116 IC50; for HCT-116 % Inhibition at 0.25 μM: 0.25 μM compound", "in_short": "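McCoy's 5A cultures; 4 h pre-incubation; compound dilutions in 0.5% v/v DMSO; 3–5 d, 37° C, 5% CO2; MTT 0.2 mg/mL final, 4 h; formazan dissolved in DMSO, A540; vs 0.5% DMSO vehicle.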"}, "[3]": {"target": "CDK2/Cyclin A (Homo sapiens, UniProt P24941)", "assay": "Inhibition of CDK2/Cyclin A Retinoblastoma Kinase Activity", "type": "biochemical", "conditions": "for Ki: apparent Ki, CDK2/proteolyzed cyclin A, Rb fragment substrate, 25 μM ATP", "in_short": "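CDK2 (10 or 19 nM), insect-cell expressed, gel-filtration purified with truncated cyclin A; Rb fragment substrate; 25 μM ATP; 10 mM HEPES pH 7.4, 10 mM MgCl2; 30° C, 60 or 75 min; EDTA stop; phosphocellulose/nitrocellulose capture, phosphorimager. % inhibition vs DMSO control, no-enzyme background subtracted.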"}, "[4]": {"conditions": "0.1 μM compound, HCT-116, Table 3"}, "[5]": {"conditions": "0.1 μM compound, HCT-116, Table 4"}}, "note": "Structures can show the parent of a compound that is named as a salt. Where two headings read alike, the source gives them in different places."}
{"smiles": "Nc1nc(NC2CCN(S(=O)(=O)c3ccc(CCNc4cccc(O)c4)nc3)CC2)sc1C(=O)c1c(F)cccc1F", "note": "[Example N6, [4-Amino-2-(1-{6-[2-(3-hydroxy-phenylamino)-ethyl]-pyridine-3-sulfonyl}-piperidin-4-ylamino)-thiazol-5-yl]-(2,6-difluoro-phenyl)-methanone Hydrochloride Salt.]", "values": [{"measurement": "Ki", "setting": "[1]", "result": 0.31, "unit": "nM"}, {"measurement": "IC50", "setting": "[2]; first HCT-116 column (c4)", "result": 410, "unit": "nM"}, {"measurement": "IC50", "setting": "[2]; second HCT-116 column (c5)", "result": 1300, "unit": "nM"}, {"measurement": "Ki", "setting": "[3]", "result": 0.3, "unit": "nM"}]}
{"smiles": "CN(C)S(=O)(=O)N1CCC(Nc2nc(N)c(C(=O)c3c(F)cccc3F)s2)CC1", "note": "[Example P7]", "values": [{"measurement": "CDK4 % Inhibition at 0.03 μM", "setting": "[1]; 0.03 μM compound, Table 3", "result": 47, "unit": "%"}, {"measurement": "HCT-116 % Inhibition at 0.1 μM", "setting": "[2]; [4]", "result": 25, "unit": "%"}, {"measurement": "HCT-116 % Inhibition at 0.25 μM", "setting": "[2]; HCT-116, Table 3", "result": 23, "unit": "%"}, {"measurement": "CDK2 % Inhibition at 0.03 μM", "setting": "[3]; 0.03 μM compound, Table 3", "result": 49, "unit": "%"}]}
{"smiles": "CCOC(=O)N1CCC(Nc2nc(N)c(C(=O)c3c(F)cccc3F)s2)CC1", "note": "[Example Q8]", "values": [{"measurement": "CDK4 % Inhibition at 0.03 μM", "setting": "[1]; 0.03 μM compound, Table 4", "result": 15, "unit": "%"}, {"measurement": "HCT-116 % Inhibition at 0.1 μM", "setting": "[2]; [5]", "result": 6, "unit": "%"}, {"measurement": "HCT-116 % Inhibition at 0.25 μM", "setting": "[2]; HCT-116, Table 4", "result": 45, "unit": "%"}, {"measurement": "CDK2 % Inhibition at 0.03 μM", "setting": "[3]; 0.03 μM compound, Table 4", "result": "−13", "unit": "%"}]}
{"smiles": "Nc1nc(NC2CCN(S(=O)(=O)c3ccc(N4CCCC(O)C4)nc3)CC2)sc1C(=O)c1c(F)cccc1F", "note": "(stereo not shown) [Example G12, 1-{4-Amino-2-[1-(3-hydroxy-3,4,5,6-tetrahydro-2H-[1,2′]bipyridinyl-5′-sulfonyl)-piperidin-4-ylamino]-thiazol-5-yl}-1-(2,6-difluoro-phenyl)-methanone Trifluoroacetic Acid Salt]", "values": [{"measurement": "Ki", "setting": "[1]", "result": 1.2, "unit": "nM"}, {"measurement": "IC50", "setting": "[2]; first HCT-116 column (c4)", "result": 280, "unit": "nM"}, {"measurement": "IC50", "setting": "[2]; second HCT-116 column (c5)", "result": "> 500", "unit": "nM"}, {"measurement": "Ki", "setting": "[3]", "result": 0.49, "unit": "nM"}]}
{"smiles": "Nc1nc(NC2CCN(S(=O)(=O)c3ccc(Cl)c([N+](=O)[O-])c3)CC2)sc1C(=O)c1c(F)cccc1F", "note": "[Example P15]", "values": [{"measurement": "CDK4 % Inhibition at 0.03 μM", "setting": "[1]; 0.03 μM compound, Table 3", "result": 65, "unit": "%"}, {"measurement": "HCT-116 % Inhibition at 0.1 μM", "setting": "[2]; [4]", "result": 30, "unit": "%"}, {"measurement": "HCT-116 % Inhibition at 0.25 μM", "setting": "[2]; HCT-116, Table 3", "result": 34, "unit": "%"}, {"measurement": "CDK2 % Inhibition at 0.03 μM", "setting": "[3]; 0.03 μM compound, Table 3", "result": 50, "unit": "%"}]}
{"smiles": "CCN(CC)C(=O)N1CCC(Nc2nc(N)c(C(=O)c3c(F)cccc3F)s2)CC1", "note": "[Example Q3]", "values": [{"measurement": "CDK4 % Inhibition at 0.03 μM", "setting": "[1]; 0.03 μM compound, Table 4", "result": 11, "unit": "%"}, {"measurement": "HCT-116 % Inhibition at 0.1 μM", "setting": "[2]; [5]", "result": 0, "unit": "%"}, {"measurement": "HCT-116 % Inhibition at 0.25 μM", "setting": "[2]; HCT-116, Table 4", "result": 42, "unit": "%"}, {"measurement": "CDK2 % Inhibition at 0.03 μM", "setting": "[3]; 0.03 μM compound, Table 4", "result": "−43", "unit": "%"}]}
{"smiles": "Nc1nc(NC2CCN(S(=O)(=O)Cc3ccccc3)CC2)sc1C(=O)c1c(F)cccc1F", "note": "[Example F4, 1-[4-Amino-2-(1-phenylmethanesulfonyl-piperidin-4-ylamino)-thiazol-5-yl]-1-(2,6-difluoro-phenyl)-methanone]", "values": [{"measurement": "Ki", "setting": "[1]", "result": 2.8, "unit": "nM"}, {"measurement": "IC50", "setting": "[2]; first HCT-116 column (c4)", "result": 260, "unit": "nM"}, {"measurement": "IC50", "setting": "[2]; second HCT-116 column (c5)", "result": 590, "unit": "nM"}, {"measurement": "Ki", "setting": "[3]", "result": 4.1, "unit": "nM"}]}
{"smiles": "Nc1nc(NC2CCN(C(=O)c3c(Cl)cc(Cl)cc3Cl)CC2)sc1C(=O)c1c(F)cccc1F", "note": "[Example R56]", "values": [{"measurement": "CDK4 % Inhibition at 0.03 μM", "setting": "[1]; at 0.03 μM", "result": 8, "unit": "%"}, {"measurement": "HCT-116 % Inhibition at 0.1 μM", "setting": "[2]; HCT-116 cells, at 0.1 μM", "result": 0, "unit": "%"}, {"measurement": "HCT-116 5 Inhibition at 0.25 μM", "setting": "[2]; HCT-116 cells", "result": 43}, {"measurement": "CDK2 % Inhibition at 0.03 μM", "setting": "[3]; at 0.03 μM", "result": 14, "unit": "%"}]}
{"smiles": "COc1cccc(C(=O)N2CCC(Nc3nc(N)c(C(=O)c4c(F)cccc4F)s3)CC2)c1", "note": "[Example R136]", "values": [{"measurement": "CDK4 % Inhibition at 0.03 μM", "setting": "[1]; at 0.03 μM", "result": 45, "unit": "%"}, {"measurement": "HCT-116 % Inhibition at 0.1 μM", "setting": "[2]; HCT-116 cells, at 0.1 μM", "result": 0, "unit": "%"}, {"measurement": "HCT-116 5 Inhibition at 0.25 μM", "setting": "[2]; HCT-116 cells", "result": 37}, {"measurement": "CDK2 % Inhibition at 0.03 μM", "setting": "[3]; at 0.03 μM", "result": 26, "unit": "%"}]}
{"smiles": "Nc1nc(NC2CCN(C(=O)OCC3c4ccccc4-c4ccccc43)CC2)sc1C(=O)c1c(F)cccc1F", "note": "[Example Q82]", "values": [{"measurement": "CDK4 % Inhibition at 0.03 μM", "setting": "[1]; 0.03 μM compound, Table 4", "result": 15, "unit": "%"}, {"measurement": "HCT-116 % Inhibition at 0.1 μM", "setting": "[2]; [5]", "result": 0, "unit": "%"}, {"measurement": "HCT-116 % Inhibition at 0.25 μM", "setting": "[2]; HCT-116, Table 4", "result": 28, "unit": "%"}, {"measurement": "CDK2 % Inhibition at 0.03 μM", "setting": "[3]; 0.03 μM compound, Table 4", "result": "−12", "unit": "%"}]}
{"smiles": "CCCCC(CC)C(=O)N1CCC(Nc2nc(N)c(C(=O)c3c(F)cccc3F)s2)CC1", "note": "(stereo not shown) [Example R168]", "values": [{"measurement": "CDK4 % Inhibition at 0.03 μM", "setting": "[1]; at 0.03 μM", "result": "−4", "unit": "%"}, {"measurement": "HCT-116 % Inhibition at 0.1 μM", "setting": "[2]; HCT-116 cells, at 0.1 μM", "result": 0, "unit": "%"}, {"measurement": "HCT-116 5 Inhibition at 0.25 μM", "setting": "[2]; HCT-116 cells", "result": 42}, {"measurement": "CDK2 % Inhibition at 0.03 μM", "setting": "[3]; at 0.03 μM", "result": 6, "unit": "%"}]}
{"smiles": "Nc1nc(NC2CCN(C(=O)Oc3ccc([N+](=O)[O-])cc3)CC2)sc1C(=O)c1c(F)cccc1F", "note": "[Example Q84]", "values": [{"measurement": "CDK4 % Inhibition at 0.03 μM", "setting": "[1]; 0.03 μM compound, Table 4", "result": 88, "unit": "%"}, {"measurement": "HCT-116 % Inhibition at 0.1 μM", "setting": "[2]; [5]", "result": 3, "unit": "%"}, {"measurement": "HCT-116 % Inhibition at 0.25 μM", "setting": "[2]; HCT-116, Table 4", "result": 40, "unit": "%"}, {"measurement": "CDK2 % Inhibition at 0.03 μM", "setting": "[3]; 0.03 μM compound, Table 4", "result": 63, "unit": "%"}]}
{"smiles": "Nc1nc(NC2CCN(C(=O)Nc3cccc(F)c3)CC2)sc1C(=O)c1c(F)cccc1F", "note": "[Example O13]", "values": [{"measurement": "CDK4 % Inhibition at 0.03 μM", "setting": "[1]; 0.03 μM compound, Table 2", "result": 8, "unit": "%"}, {"measurement": "HCT-116 % Inhibition at 0.25 μM", "setting": "[2]; HCT-116, Table 2", "result": 22, "unit": "%"}, {"measurement": "CDK2 % Inhibition At 0.03 μM", "setting": "[3]; 0.03 μM compound, Table 2", "result": 37, "unit": "%"}]}
{"smiles": "Nc1nc(NC2CCN(C(=O)C3CC3)CC2)sc1C(=O)c1c(F)cccc1F", "note": "[Example Q54]", "values": [{"measurement": "CDK4 % Inhibition at 0.03 μM", "setting": "[1]; 0.03 μM compound, Table 4", "result": 18, "unit": "%"}, {"measurement": "HCT-116 % Inhibition at 0.1 μM", "setting": "[2]; [5]", "result": 0, "unit": "%"}, {"measurement": "HCT-116 % Inhibition at 0.25 μM", "setting": "[2]; HCT-116, Table 4", "result": 35, "unit": "%"}, {"measurement": "CDK2 % Inhibition at 0.03 μM", "setting": "[3]; 0.03 μM compound, Table 4", "result": "−2", "unit": "%"}]}
